Measurements from ChEMBL document CHEMBL4715817, “Python Cathelicidin CATHPb1 Protects against Multidrug-Resistant Staphylococcal Infections by Antimicrobial-Immunomodulatory Duality” (J Med Chem, 2018).
Values after ≈ are worked out from the molar mass of the structure shown. Active and inactive are the calls of the source. No cut-off for these calls is given here. Peptide text beside a SMILES is read from it.

How the values were obtained:
Staphylococcus aureus [1] = assay: Antimicrobial activity against methicillin resistant Staphylococcus aureus IS 08032712, incubated for 16 to 18 hrs by fluorescence microplate reader analysis; format: functional; details: time 16-18 hrs
Enterococcus faecalis = assay: Antimicrobial activity against Enterococcus faecalis IS 981 incubated for 16 to 18 hrs by fluorescence microplate reader analysis; format: functional; details: time 16-18 hrs
Klebsiella pneumoniae = assay: Antimicrobial activity against Klebsiella pneumoniae IS 1400 incubated for 16 to 18 hrs by fluorescence microplate reader analysis; format: functional; details: time 16-18 hrs
Macrophage [2] = assay: Immunomodulatory activity in mouse peritoneal macrophage assessed as inhibition of LPS-induced TNF-alpha level measured after 6 hrs by qRT-PCR analysis; format: functional, tissue-based; details: dose 5-20 µg/ml
Macrophage [3] = assay: Immunomodulatory activity in mouse peritoneal macrophage assessed as inhibition of LPS-induced IL-6 level measured after 6 hrs by qRT-PCR analysis; format: functional, tissue-based; details: dose 5-20 µg/ml
Macrophage [4] = assay: Immunomodulatory activity in mouse peritoneal macrophage assessed as inhibition of LPS-induced MCP-1 level measured after 6 hrs by qRT-PCR analysis; format: functional, tissue-based; details: dose 5-20 µg/ml
Macrophage [5] = assay: Immunomodulatory activity in mouse peritoneal macrophage assessed as inhibition of LPS-induced TNF-alpha level measured after 24 hrs by ELISA; format: functional, tissue-based; details: dose 5-20 µg/ml
Macrophage [6] = assay: Immunomodulatory activity in mouse peritoneal macrophage assessed as inhibition of LPS-induced IL-1beta level measured after 24 hrs by ELISA; format: functional, tissue-based; details: dose 5-20 µg/ml
Staphylococcus aureus [7] = assay: In vivo antibacterial activity against vancomycin resistant Staphylococcus aureus infected in kunming mouse assessed as reduction in bacterial load in peritoneum at 10 mg/kg, ip measured 18 hrs after infection; format: functional, organism-based
Staphylococcus aureus [8] = assay: In vivo antibacterial activity against vancomycin resistant Staphylococcus aureus infected in kunming mouse assessed as reduction in bacterial load in peritoneum at 10 mg/kg, im measured 18 hrs after infection; format: functional, organism-based
Staphylococcus aureus [9] = assay: In vivo antibacterial activity against vancomycin resistant Staphylococcus aureus infected in kunming mouse assessed as reduction in bacterial load in peritoneum at 10 mg/kg, iv measured 18 hrs after infection; format: functional, organism-based
Staphylococcus aureus [10] = assay: In vivo antibacterial activity against vancomycin resistant Staphylococcus aureus infected in kunming mouse assessed as reduction in bacterial load in peritoneal lavage at 10 mg/kg, ip administered 4 hrs after infection; format: functional, organism-based
Staphylococcus aureus [11] = assay: In vivo antibacterial activity against vancomycin resistant Staphylococcus aureus infected in ip dosed kunming mouse assessed as increase in survival rate administered 4 hrs after infection and measured up to 7 days after infection; format: functional, organism-based; details: dose 5-20 mg/kg, time day <=7
Staphylococcus aureus [12] = assay: In vivo antibacterial activity against vancomycin resistant Staphylococcus aureus infected in neutropenic kunming mouse model assessed as survival rate at 10 mg/kg, ip administered 24 hrs before infection; format: functional, organism-based
Pseudomonas aeruginosa = assay: Antibiofilm activity against Pseudomonas aeruginosa assessed as biofilm eradication at BIC-5 by XTT and crystal violet staining assay relative to control; format: functional
[13] = Immunomodulatory activity in mouse peritoneal macrophage assessed as increase in IL-10 mRNA level at 20 ug/ml measured after 6 hrs by qRT-PCR analysis relative to control; format: functional; details: dose 20 µg/ml
Neutrophil [14] = assay: Immunomodulatory activity in neutrophils (unknown origin) assessed as inhibition of LPS-induced MCP-1 level at 5 to 20 ug/ml by ELISA; format: functional, cell-based; details: dose 5-20 µg/ml
Neutrophil [15] = assay: Immunomodulatory activity in neutrophils (unknown origin) assessed as increase in CXCL1/KC level at 20 ug/ml measured after 12 hrs by ELISA; format: functional, cell-based; details: dose 20.0 µg/ml
Mus musculus [16] = assay: Immunomodulatory activity in Kunming mouse infected with vancomycin-resistant Staphylococcus aureus assessed as decreased in IL-1beta level in peritoneal lavage at 10 mg/kg, ip administered 24 hrs before infection by ELISA; format: functional, organism-based
Mus musculus [17] = assay: Immunomodulatory activity in Kunming mouse infected with vancomycin-resistant Staphylococcus aureus assessed as decreased in TNF-alpha level in peritoneal lavage at 10 mg/kg, ip administered 4 hrs after infection by ELISA; format: functional, organism-based
Mus musculus [18] = assay: Immunomodulatory activity in Kunming mouse infected with vancomycin-resistant Staphylococcus aureus assessed as increased in CXCL1/KC level in peritoneal lavage at 10 mg/kg, ip administered 4 hrs after infection by ELISA; format: functional, organism-based
[19] = Toxicity in Kunming mouse assessed as effect on CXCL1/KC levels at 10 mg/kg, ip measured after 5 hrs by ELISA; format: organism-based; details: in vivo
[20] = Toxicity in Kunming mouse assessed as effect on TNF-alpha levels at 10 mg/kg, ip measured after 5 hrs by ELISA; format: organism-based; details: in vivo
Staphylococcus aureus [21] = assay: Antibacterial activity against FITC-labelled Staphylococcus aureus ATCC 25923 infected in neutrophil cells assessed as entrapment of bacteria by NET releasing neutrophil at 20 to 40 ug/ml by fluorescence analysis; format: functional, organism-based; details: dose 20-40 µg/ml
Mus musculus [22] = assay: Immunomodulatory activity in mouse assessed as increase number of neutrophil in peritoneal cavity at 10 mg/kg, ip measured after 5 to 24 hrs by flow cytometry; format: functional, organism-based; details: time 5-24 hrs
Mus musculus [23] = assay: Immunomodulatory activity in mouse assessed as increase […] of KC in peritoneal cavity at 10 mg/kg, ip measured after 5 to 24 hrs by ELISA; format: functional, organism-based; details: time 5-24 hrs
Macrophage [24] = assay: Induction of ROS production in mouse peritoneal macrophage by fluorescence assay; format: functional, tissue-based; details: dose 10-40 µg/ml
Neutrophil [25] = assay: Induction of ROS production in neutrophil (unknown origin) by fluorescence assay; format: functional, cell-based; details: dose 10-40 µg/ml
Staphylococcus aureus [26] = assay: Antibacterial activity against vancomycin-resistant Staphylococcus aureus assessed as neutrophil-induced bacterial cell killing neutrophils pretreated with compound measured after 15 to 60 mins; format: functional, organism-based; details: dose 10-40 µg/ml, time 15-60 min
Staphylococcus aureus [27] = assay: Antibacterial activity against vancomycin-resistant Staphylococcus aureus assessed as neutrophil-induced bacterial cell killing neutrophils pretreated with compound at 10 to 40 ug/ml; format: functional, organism-based; details: dose 10-40 µg/ml, time 15-60 min, TDE = time-dependent effect
Macrophage [28] = assay: Inhibition of LPS-induced phosphorylation of p38 in mouse peritoneal macrophage pretreated for 1 hr followed by LPS stimulation measured after 30 mins by Western blot analysis; format: tissue-based; details: dose 5-20 µg/ml, time 1.5 hrs
[29] = target: T1, Mitogen-activated protein kinase 8/9 (Homo sapiens) (UniProt P45983+P45984); assay: Inhibition of LPS-induced phosphorylation of Jnk1/2 in mouse peritoneal macrophage pretreated for 1 hr followed by LPS stimulation measured after 30 mins by Western blot analysis; format: tissue-based; details: dose 5-20 µg/ml, time 1.5 hrs
T1 sequence (P45983 whole entry, looked up): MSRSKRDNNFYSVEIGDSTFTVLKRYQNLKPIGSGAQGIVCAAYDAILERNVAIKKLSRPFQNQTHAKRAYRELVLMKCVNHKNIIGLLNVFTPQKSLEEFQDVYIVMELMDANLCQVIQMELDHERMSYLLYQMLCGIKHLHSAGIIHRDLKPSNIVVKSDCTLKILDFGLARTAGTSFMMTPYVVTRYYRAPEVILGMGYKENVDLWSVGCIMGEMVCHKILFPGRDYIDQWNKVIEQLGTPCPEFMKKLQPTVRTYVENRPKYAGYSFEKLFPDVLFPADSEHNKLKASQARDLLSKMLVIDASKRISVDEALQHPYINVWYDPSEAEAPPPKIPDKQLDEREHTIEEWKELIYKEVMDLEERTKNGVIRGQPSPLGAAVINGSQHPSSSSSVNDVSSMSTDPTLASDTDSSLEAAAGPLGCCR
T1 sequence (P45984 whole entry, looked up): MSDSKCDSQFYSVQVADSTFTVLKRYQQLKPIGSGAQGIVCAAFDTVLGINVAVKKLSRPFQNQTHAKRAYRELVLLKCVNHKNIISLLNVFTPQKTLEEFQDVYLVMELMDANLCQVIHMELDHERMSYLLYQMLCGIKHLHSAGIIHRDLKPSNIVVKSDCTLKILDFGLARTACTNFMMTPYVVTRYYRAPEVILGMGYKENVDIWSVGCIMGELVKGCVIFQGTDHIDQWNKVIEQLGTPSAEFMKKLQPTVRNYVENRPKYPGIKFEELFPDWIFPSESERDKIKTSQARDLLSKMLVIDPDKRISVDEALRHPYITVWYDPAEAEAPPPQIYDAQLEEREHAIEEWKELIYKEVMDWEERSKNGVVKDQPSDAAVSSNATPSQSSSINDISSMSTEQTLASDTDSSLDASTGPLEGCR

Macrophage [30] = assay: Inhibition of LPS-induced phosphorylation of p38 in mouse peritoneal macrophage at 20 ug/ml pretreated for 1 hr followed by LPS stimulation measured after 30 mins by Western blot analysis relative to control; format: tissue-based; details: dose 20.0 µg/ml, time 1.5 hrs
[31] = target: T1, Mitogen-activated protein kinase 8/9 (Homo sapiens); assay: Inhibition of LPS-induced phosphorylation of Jnk1/2 in mouse peritoneal macrophage at 20 ug/ml pretreated for 1 hr followed by LPS stimulation measured after 30 mins by Western blot analysis relative to control; format: tissue-based; details: dose 20.0 µg/ml, time 1.5 hrs
Staphylococcus aureus [32] = assay: Antibacterial activity against vancomycin-resistant Staphylococcus aureus assessed as bacterial growth inhibition in aqueous solution incubated upto 96 hrs; format: functional; details: time hrs <=96
Staphylococcus aureus [33] = assay: Antibacterial activity against vancomycin-resistant Staphylococcus aureus assessed as bacterial growth inhibition in presence of 100 mmol NaCl; format: functional
[34] = Stability of compound in 80% human serum assessed as intact compound remained measured upto 8 hrs by HPLC analysis; format: cell-free; details: time hrs <=8

## CC[C@H](C)[C@H](NC(=O)[C@@H]1CCCN1C(=O)[C@@H](NC(=O)[C@@H](NC(=O)CNC(=O)CNC(=O)[C@@H](NC(=O)[C@H](Cc1ccccc1)NC(=O)[C@@H](NC(=O)[C@H](CCCCN)NC(=O)[C@@H](NC(=O)[C@H](CCCCN)NC(=O)[C@H](CCCCN)NC(=O)[C@H](Cc1ccccc1)NC(=O)[C@@H](NC(=O)[C@H](CCCCN)NC(=O)[C@H](CCCNC(=N)N)NC(=O)[C@H](Cc1ccccc1)NC(=O)CNC(=O)[C@H](CCCCN)NC(=O)[C@H](CCCCN)NC(=O)[C@@H](NC(=O)[C@H](CCCCN)NC(=O)[C@H](CCCNC(=N)N)NC(=O)[C@H](Cc1ccccc1)NC(=O)[C@H](Cc1ccccc1)NC(=O)[C@H](CCCCN)NC(=O)[C@H](CCCCN)NC(=O)[C@H](Cc1ccccc1)NC(=O)[C@H](CCCNC(=N)N)NC(=O)[C@@H](N)CCCCN)[C@@H](C)CC)[C@@H](C)CC)[C@@H](C)O)[C@@H](C)CC)[C@@H](C)CC)[C@@H](C)O)[C@@H](C)CC)C(=O)O (H-KRFKKFFRKIKKGFRKIFKKTKIFIGGTIPI-OH)
Staphylococcus aureus [1]
  MIC: 1.17 µg/mL (≈ 0.308 µM)
Enterococcus faecalis
  MIC: 1.17 µg/mL (≈ 0.308 µM)
Klebsiella pneumoniae
  MIC: 1.17 µg/mL (≈ 0.308 µM)
Macrophage [2]
  inhibition: Dose-dependent effect
Macrophage [3]
  inhibition: Dose-dependent effect
Macrophage [4]
  inhibition: Dose-dependent effect
Macrophage [5]
  inhibition: Dose-dependent effect
Macrophage [6]
  inhibition: Dose-dependent effect
Staphylococcus aureus [7]
  Activity: Active
Staphylococcus aureus [8]
  Activity: Active
Staphylococcus aureus [9]
  Activity: Active
Staphylococcus aureus [10]
  Activity: Active
Staphylococcus aureus [11]
  Activity: Dose-dependent effect
Staphylococcus aureus [12]
  Activity: inactive
Pseudomonas aeruginosa
  Activity: 62.23%
[13]
  fold change (FC): 8
Neutrophil [14]
  inhibition: inactive
Neutrophil [15]
  Activity: Active
Mus musculus [16]
  Activity: Active
Mus musculus [17]
  Activity: Active
Mus musculus [18]
  Activity: Active
[19]
  Activity: Non-Toxic
[20]
  Activity: Non-Toxic
Staphylococcus aureus [21]
  Activity: Active
Mus musculus [22]
  Activity: Active
Mus musculus [23]
  Activity: Active
Macrophage [24]
  Activity: Dose-dependent effect
Neutrophil [25]
  Activity: Dose-dependent effect
Staphylococcus aureus [26]
  Activity: Dose-dependent effect
Staphylococcus aureus [27]
  Activity: Tde
Macrophage [28]
  inhibition: Dose-dependent effect
[29]
  inhibition: Dose-dependent effect
Macrophage [30]
  inhibition: 92%
[31]
  inhibition: 85%
Staphylococcus aureus [32]
  MIC: 4.96 µg/mL (≈ 1.3 µM)
Staphylococcus aureus [33]
  MIC: < 10 µg/mL
[34]
  Stability: 30%
